According to ChEMBL document CHEMBL1201862, “PubChem BioAssay data set” (2004):
Activity calls are given as the source filed them.

Assays:
[1] = system: Streptococcus sp. 'group A'; experiment: growth inhibition of control SK(-) GAS strain, dose response, counter-screen for streptokinase expression inhibitor project, luminescence, kanamycin, BacTiterGlo, confirmation (AID 1900); type: functional, organism-based
Streptococcus = experiment: Group A Streptococcus viability loss, dose response, counter-screen for streptokinase expression inhibitor project, luminescence, BacTiterGlo (AID 1915); type: functional, organism-based;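 also: potency for reduction of bacterial viability or growth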
HEK293 = experiment: inhibitors of LMP1-driven NF-kB reporter, dose response, cell-based, HEK293, luciferase, cherry-pick (AID 588343); type: functional; conditions: Homo sapiens
[2] = molecular target: Latent membrane protein 1 (Human herpesvirus 4 (strain B95-8), UniProt P03230); experiment: TES1-eGFP NF-kB reporter inhibition versus Tet-On dsRED, dose response, selectivity assay for LMP1 NF-kB inhibitor project, imaging, HEK293T, dual-color eGFP/dsRED, cherry-picks (AID 588398); type: functional, cell-based
cells [3] = type: functional, cell-based
[4] = molecular target: T1, Nuclear receptor subfamily 0 group B member 1 (Homo sapiens, UniProt P51843); type: functional, cell-based;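 also: HEK293T cells transfected with SF-1 and DAX-1 plus StAR promoter luciferase reporter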
T1 sequence (P51843 whole entry): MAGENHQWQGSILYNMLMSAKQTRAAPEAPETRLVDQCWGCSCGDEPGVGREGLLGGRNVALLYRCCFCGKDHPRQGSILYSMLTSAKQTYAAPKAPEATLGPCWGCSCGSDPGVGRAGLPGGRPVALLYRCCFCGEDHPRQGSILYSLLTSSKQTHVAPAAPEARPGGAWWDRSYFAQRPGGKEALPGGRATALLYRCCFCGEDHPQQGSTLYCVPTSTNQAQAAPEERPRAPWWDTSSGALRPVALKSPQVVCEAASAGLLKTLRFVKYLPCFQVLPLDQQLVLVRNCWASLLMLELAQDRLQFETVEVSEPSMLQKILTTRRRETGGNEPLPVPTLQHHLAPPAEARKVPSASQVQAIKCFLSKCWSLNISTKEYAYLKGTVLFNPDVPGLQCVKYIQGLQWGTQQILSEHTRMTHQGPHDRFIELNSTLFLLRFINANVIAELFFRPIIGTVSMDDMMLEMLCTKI

[5] = A549 cell cytotoxicity, dose response, cytotoxicity control, plate reader, cherry-pick, antagonist series (AID 743412); type: functional, cell-based
[6] = HepG2 cell cytotoxicity, dose response, cytotoxicity control, plate reader, cherry-pick, antagonist series (AID 743416); type: functional, cell-based
[7] = LGR2 antagonists, dose response, cell-based, HEK293, CRE-luciferase reporter, cherry pick, set 2 (AID 743343); type: functional;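 also: transfected cells were stimulated with diluted bursicon conditioned medium after compound addition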
[8] = MC4R antagonists, dose response, counter-screen for LGR2 antagonist project, cell-based, plate reader, cherry pick (AID 743444); type: functional;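 also: transfected HEK 293 cells stimulated with alpha-MSH peptide; potency of inhibitors of the alpha-MSH evoked signal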
[9] = HEK293 cell cytotoxicity, dose response, cytotoxicity control, plate reader, cherry-picked samples (AID 743446); type: functional, cell-based
[10] = molecular target: Tyrosyl-DNA phosphodiesterase 2 (Homo sapiens, UniProt O95551); experiment: human TDP2 enzyme inhibitors, dose response, biochemical, epi absorbance, IC50 (AID 743297)
Chain of Tyrosyl-DNA phosphodiesterase 2 (O95551 whole entry): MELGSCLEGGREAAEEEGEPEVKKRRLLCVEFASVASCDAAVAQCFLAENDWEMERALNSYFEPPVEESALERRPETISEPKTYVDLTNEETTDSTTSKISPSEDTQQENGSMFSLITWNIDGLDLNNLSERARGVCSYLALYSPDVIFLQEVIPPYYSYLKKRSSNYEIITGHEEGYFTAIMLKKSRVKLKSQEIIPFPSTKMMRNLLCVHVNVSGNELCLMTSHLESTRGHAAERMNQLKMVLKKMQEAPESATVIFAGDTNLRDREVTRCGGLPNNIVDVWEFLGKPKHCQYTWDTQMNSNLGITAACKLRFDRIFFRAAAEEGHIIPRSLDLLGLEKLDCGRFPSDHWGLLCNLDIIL

[11] = CFTR ΔF508 corrector activity in bronchial cells, dose response, human bronchial epithelial cells, plate reader, cherry-pick, two tests (AID 743267); type: functional, cell-based
A549 = experiment: A549 cell toxicity, dose response, cytotoxicity control, plate reader, cherry-pick samples (AID 687028); type: functional, cell-based; conditions: Homo sapiens
[12] = HT1080 parental cell cytotoxicity, dose response, cytotoxicity control for MT1-MMP activation inhibitor project, ATPLite luminescence, set 1 (AID 652252); type: functional
[13] = molecular target: Matrix metalloproteinase-14 (Homo sapiens, UniProt P50281); experiment: Dose Response confirmation of uHTS hits for a small molecule inhibitors of MT1-MMP activation in a fluorescence assay set 1.; type: functional
[14] = HeLa cell cytotoxicity, dose response, cytotoxicity control, 24 h, plate reader, dry powder (AID 686928); type: functional, cell-based
[15] = molecular target: Tyrosine-protein phosphatase non-receptor type 11 (Homo sapiens, UniProt Q06124); experiment: SHP2 phosphatase inhibition, dose response, selectivity assay for STEP inhibitor project, biochemical (AID 602367); type: functional; conditions: read-out: IC50_Mean
[16] = molecular target: Tyrosine-protein phosphatase non-receptor type 5 (Homo sapiens, UniProt P54829); experiment: STEP phosphatase inhibitors, confirmation, biochemical, fluorescence intensity, uHTS hits (AID 602372); type: functional; conditions: read-out: IC50_Mean
[17] = molecular target: Dual specificity protein phosphatase 3 (Homo sapiens, UniProt P51452); experiment: VHR phosphatase inhibition, dose response, selectivity assay for STEP inhibitor project, biochemical (AID 602374); type: functional; conditions: read-out: IC50_Mean
Chain of Dual specificity protein phosphatase 3 (P51452 whole entry): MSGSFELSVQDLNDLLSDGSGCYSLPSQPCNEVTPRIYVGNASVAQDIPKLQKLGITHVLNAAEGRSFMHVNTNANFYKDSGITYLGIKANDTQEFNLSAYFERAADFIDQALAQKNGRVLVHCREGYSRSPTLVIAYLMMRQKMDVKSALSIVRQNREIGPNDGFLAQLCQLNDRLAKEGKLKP

[18] = molecular target: T2, Tyrosine-protein phosphatase non-receptor type 22 (Homo sapiens, UniProt Q9Y2R2); experiment: PTPN22 phosphatase inhibition, dose response, selectivity assay for STEP inhibitor project, biochemical (AID 624241); type: functional
T2 sequence (Q9Y2R2 whole entry): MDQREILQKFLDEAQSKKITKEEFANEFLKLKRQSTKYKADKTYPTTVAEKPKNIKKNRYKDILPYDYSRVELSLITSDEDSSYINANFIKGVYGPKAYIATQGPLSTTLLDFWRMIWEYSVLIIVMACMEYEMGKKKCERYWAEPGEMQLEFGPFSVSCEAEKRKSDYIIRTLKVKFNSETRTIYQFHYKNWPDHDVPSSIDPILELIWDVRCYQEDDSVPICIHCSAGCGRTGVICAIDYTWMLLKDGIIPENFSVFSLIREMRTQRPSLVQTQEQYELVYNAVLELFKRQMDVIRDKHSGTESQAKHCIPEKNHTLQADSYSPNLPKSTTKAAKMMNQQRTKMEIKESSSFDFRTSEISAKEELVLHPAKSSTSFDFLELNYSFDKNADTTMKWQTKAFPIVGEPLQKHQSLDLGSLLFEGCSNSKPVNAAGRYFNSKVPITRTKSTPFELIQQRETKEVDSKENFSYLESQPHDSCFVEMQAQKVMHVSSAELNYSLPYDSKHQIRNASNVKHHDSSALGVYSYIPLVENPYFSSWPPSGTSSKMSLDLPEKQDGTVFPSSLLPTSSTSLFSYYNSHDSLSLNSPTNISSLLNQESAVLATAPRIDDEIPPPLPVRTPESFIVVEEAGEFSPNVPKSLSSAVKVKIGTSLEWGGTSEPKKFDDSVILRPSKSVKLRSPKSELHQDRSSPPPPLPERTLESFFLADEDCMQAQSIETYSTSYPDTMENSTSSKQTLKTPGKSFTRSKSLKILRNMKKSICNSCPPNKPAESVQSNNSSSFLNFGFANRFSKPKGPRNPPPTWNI

[19] = molecular target: Histone-lysine N-methyltransferase NSD2 (Homo sapiens, UniProt O96028); type: biochemical
Chain of Histone-lysine N-methyltransferase NSD2 (O96028 whole entry): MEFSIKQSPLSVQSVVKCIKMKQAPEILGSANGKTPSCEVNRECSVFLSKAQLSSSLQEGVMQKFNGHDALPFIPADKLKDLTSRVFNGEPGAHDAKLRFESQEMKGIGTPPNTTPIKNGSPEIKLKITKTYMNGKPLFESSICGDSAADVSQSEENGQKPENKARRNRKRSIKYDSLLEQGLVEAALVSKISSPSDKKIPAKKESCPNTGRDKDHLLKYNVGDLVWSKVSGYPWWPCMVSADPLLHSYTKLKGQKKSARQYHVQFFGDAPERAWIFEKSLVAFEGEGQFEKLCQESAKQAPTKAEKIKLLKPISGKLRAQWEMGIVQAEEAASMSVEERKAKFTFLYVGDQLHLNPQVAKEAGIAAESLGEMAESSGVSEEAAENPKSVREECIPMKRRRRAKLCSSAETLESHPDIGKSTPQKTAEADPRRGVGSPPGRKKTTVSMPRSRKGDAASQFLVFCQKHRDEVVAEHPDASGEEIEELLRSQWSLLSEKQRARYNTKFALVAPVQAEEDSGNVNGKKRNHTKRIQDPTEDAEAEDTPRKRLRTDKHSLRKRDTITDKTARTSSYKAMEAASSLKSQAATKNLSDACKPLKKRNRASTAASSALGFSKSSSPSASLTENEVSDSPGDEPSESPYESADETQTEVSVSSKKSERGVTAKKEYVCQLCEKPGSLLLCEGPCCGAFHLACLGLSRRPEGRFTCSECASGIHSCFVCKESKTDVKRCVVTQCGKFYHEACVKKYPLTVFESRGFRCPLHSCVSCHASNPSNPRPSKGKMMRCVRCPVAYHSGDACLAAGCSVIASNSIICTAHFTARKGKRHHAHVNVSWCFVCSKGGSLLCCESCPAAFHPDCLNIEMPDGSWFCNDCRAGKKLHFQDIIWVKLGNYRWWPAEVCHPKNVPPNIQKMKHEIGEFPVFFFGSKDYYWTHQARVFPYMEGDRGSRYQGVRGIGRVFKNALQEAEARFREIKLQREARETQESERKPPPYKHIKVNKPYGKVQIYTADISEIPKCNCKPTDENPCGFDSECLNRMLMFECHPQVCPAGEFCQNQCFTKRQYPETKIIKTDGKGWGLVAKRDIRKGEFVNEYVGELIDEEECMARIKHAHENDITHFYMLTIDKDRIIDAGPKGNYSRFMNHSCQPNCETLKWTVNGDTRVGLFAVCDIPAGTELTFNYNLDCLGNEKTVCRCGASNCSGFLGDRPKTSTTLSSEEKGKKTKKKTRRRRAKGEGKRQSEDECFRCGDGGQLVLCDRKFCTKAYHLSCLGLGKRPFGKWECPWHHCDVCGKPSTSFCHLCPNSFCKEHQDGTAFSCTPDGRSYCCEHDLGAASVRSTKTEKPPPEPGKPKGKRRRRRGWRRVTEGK

[20] = HEp-2 cell cytotoxicity, dose response, cytotoxicity control for RSV inhibitor project, HTS (AID 2410); type: functional; conditions: human respiratory syncytial virus
[21] = inhibitors of CMV-promoter luciferase reporter, dose response, counter-screen for Pax8 inhibitor project, cell-based, HEK293, luminescence, dry powder (AID 743020); type: functional
[22] = microbe, parasite or virus in culture; type: functional; conditions: Mycobacterium tuberculosis
[23] = molecular target: Fructose-bisphosphate aldolase (Mycobacterium tuberculosis, UniProt P9WQA3); experiment: Fluorescence-based biochemical high throughput dose response assay for inhibitors of the fructose-bisphosphate aldolase (FBA) of M. tuberculosis.; type: functional
[24] = Late stage assay provider results from the probe development effort to identify selective inhibitors of heat shock protein 90 (HSP90): Absorbance-based cell proliferation assay in SKBR3 cells.; type: functional; conditions: SK-BR-3
[25] = Late stage assay provider results from the probe development effort to identify selective inhibitors of heat shock protein 90 (HSP90): Absorbance-based cell proliferation assay in MCF7 cells.; type: functional
Protein Wnt-3a = Protein Wnt-3a (Mus musculus, UniProt P27467); experiment: SAR analysis of small molecule antagonists of Gli-SUFU in a Wnt3a luminescent reporter assay.; type: functional
Chain of Protein Wnt-3a (P27467 whole entry): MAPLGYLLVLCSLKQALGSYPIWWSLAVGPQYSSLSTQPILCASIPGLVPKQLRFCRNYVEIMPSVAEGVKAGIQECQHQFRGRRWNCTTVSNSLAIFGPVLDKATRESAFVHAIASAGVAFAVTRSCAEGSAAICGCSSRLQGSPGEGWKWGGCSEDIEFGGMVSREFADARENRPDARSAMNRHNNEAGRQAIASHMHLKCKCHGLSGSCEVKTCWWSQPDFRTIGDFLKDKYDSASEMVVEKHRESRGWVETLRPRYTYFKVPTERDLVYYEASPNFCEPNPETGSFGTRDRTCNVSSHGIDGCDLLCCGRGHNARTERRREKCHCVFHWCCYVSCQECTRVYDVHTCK

[26] = molecular target: T3, Kappa-type opioid receptor (Homo sapiens, UniProt P41145); type: functional
T3 sequence (P41145 whole entry): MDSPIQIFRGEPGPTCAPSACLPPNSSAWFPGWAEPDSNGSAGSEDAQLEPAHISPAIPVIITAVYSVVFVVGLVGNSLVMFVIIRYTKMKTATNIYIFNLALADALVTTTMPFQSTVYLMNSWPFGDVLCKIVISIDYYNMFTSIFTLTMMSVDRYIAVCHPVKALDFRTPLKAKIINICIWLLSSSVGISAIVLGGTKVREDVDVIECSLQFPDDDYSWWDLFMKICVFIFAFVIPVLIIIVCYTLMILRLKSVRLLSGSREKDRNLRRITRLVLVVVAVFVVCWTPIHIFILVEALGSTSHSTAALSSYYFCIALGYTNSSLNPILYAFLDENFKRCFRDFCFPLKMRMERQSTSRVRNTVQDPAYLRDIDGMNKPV

Beta-galactosidase = Beta-galactosidase (Escherichia coli, UniProt Q8VNN2); type: functional
Chain of Beta-galactosidase (Q8VNN2 whole entry): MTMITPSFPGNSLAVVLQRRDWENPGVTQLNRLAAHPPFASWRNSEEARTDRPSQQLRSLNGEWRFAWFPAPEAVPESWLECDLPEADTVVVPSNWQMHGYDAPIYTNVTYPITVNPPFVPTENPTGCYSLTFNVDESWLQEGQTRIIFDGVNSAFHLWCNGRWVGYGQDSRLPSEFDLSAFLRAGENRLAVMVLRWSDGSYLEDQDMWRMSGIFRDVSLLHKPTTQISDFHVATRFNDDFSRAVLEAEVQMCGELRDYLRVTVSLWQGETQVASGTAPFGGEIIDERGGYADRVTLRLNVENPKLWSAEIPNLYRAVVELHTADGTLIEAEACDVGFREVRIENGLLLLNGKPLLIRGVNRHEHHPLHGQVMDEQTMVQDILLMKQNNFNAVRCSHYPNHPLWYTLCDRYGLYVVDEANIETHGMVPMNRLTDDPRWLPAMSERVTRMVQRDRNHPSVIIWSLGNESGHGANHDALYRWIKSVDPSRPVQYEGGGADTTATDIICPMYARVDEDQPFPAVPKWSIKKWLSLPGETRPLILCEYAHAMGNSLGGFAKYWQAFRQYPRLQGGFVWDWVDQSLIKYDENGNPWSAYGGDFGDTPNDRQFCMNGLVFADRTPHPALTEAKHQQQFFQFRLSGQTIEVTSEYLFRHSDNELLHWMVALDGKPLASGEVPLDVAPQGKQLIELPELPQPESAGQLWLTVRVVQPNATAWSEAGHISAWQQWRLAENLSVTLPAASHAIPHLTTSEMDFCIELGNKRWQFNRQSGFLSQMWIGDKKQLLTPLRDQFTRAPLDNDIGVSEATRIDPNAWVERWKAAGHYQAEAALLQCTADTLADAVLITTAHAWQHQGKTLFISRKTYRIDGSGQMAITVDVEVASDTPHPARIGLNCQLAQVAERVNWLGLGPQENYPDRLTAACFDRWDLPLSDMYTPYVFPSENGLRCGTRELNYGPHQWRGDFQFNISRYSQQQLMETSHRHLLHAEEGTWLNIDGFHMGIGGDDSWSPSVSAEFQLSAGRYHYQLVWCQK

[27] = molecular target: T3, Kappa-type opioid receptor; type: functional; remark: listed apart in the source
[28] = ADAM10 inhibitors, peptide cleavage, dose response, biochemical, QFRET (AID 743254);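 also: ADAM10 enzyme with the DM2 quenched FRET peptide as substrate; EDANS fluorescence gain as the protease cuts the substrate; inhibitor potency against ADAM10 proteolytic activity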
[29] = molecular target: T4, Disintegrin and metalloproteinase domain-containing protein 17 (Homo sapiens, UniProt P78536); experiment: exosite inhibitors of ADAM17, dose response, biochemical (AID 743260)
T4 sequence (P78536 whole entry, the tested form may be a part): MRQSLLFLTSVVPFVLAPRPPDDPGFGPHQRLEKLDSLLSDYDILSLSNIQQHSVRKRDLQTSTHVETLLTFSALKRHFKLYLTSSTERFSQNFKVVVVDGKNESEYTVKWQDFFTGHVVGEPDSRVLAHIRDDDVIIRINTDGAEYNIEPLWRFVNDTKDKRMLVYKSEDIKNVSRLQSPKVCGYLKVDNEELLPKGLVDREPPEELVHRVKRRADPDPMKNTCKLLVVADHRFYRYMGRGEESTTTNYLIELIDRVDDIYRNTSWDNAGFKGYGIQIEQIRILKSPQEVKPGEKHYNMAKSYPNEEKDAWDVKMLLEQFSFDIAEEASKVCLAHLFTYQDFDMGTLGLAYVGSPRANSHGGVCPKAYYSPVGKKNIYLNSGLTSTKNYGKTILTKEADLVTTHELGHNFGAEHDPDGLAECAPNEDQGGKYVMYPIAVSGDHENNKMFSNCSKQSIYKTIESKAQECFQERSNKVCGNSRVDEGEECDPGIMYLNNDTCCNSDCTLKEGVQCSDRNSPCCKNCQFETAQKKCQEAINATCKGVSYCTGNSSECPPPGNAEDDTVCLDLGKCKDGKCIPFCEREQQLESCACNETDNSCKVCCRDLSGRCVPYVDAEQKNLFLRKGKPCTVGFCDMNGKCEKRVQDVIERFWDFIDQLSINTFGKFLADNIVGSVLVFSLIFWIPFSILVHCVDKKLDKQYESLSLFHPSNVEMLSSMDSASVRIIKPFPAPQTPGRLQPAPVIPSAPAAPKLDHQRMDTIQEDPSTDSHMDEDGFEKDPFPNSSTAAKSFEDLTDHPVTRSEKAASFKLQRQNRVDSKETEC

[30] = molecular target: T4, Disintegrin and metalloproteinase domain-containing protein 17; experiment: ADAM17 protease inhibitors, dose response, counter-screen for ADAM10 exosite inhibitor project, biochemical, quenched FRET substrate (AID 743253)
HeLa = experiment: HeLa cell cytotoxicity, dose response, cytotoxicity control, ATP luminescence, cherry-pick samples (AID 687004); type: functional, cell-based; conditions: Homo sapiens
[31] = inhibitors of intracellular T. cruzi replication, confirmation, NIH3T3 host cells, beta-gal luminescence (AID 2044); type: functional, cell-based;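 also: intracellular parasites grown in NIH/3T3 mouse fibroblasts as host cells; luminescent beta-galactosidase reporter signal from transgenic T. cruzi replicating inside host cells; inhibitors lower the luminescence signal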
[32] = cytotoxicity toward NIH3T3 fibroblasts, dose response, counter-screen, cell-based, ATP luminescence, mouse fibroblasts (AID 2010); type: functional;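 also: cells exposed to compound for about 90 hours before reading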
[33] = molecular target: Glucose-6-phosphate 1-dehydrogenase (Homo sapiens, UniProt P11413); experiment: human G6PD enzyme inhibitors, dose response, selectivity assay for P. falciparum G6PD inhibitor project, biochemical, fluorescence (AID 504792); type: functional
Chain of Glucose-6-phosphate 1-dehydrogenase (P11413 whole entry): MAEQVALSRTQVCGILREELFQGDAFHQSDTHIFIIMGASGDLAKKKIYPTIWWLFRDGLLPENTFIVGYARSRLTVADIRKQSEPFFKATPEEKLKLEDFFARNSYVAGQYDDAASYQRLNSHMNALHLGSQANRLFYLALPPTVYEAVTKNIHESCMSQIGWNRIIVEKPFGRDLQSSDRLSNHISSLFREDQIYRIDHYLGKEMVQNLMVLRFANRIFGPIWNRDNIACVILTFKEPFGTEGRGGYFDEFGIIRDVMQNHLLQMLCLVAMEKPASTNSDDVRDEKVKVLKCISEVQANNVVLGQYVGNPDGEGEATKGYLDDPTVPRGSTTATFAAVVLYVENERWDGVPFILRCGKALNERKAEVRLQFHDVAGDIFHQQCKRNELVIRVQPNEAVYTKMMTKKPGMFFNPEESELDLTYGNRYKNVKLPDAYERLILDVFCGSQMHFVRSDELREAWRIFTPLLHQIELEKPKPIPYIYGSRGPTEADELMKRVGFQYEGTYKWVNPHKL

cells [34] = type: functional, cell-based; remark: listed apart in the source
cells [35] = type: functional, cell-based; remark: listed apart in the source
[36] = T. cruzi growth inhibition in host cells, dose response, cell-based, plate reader, dry powder, set 2 (AID 652275); type: functional

Structure (SMILES): COc1ccc(-c2cc3nc4n(c(=O)c3s2)CCC4)cc1
- EC50 [1]: 706 nM (active)
- EC50 (Streptococcus): 2.48 µM (active)
- AC50 (HEK293): 1.48 µM (active)
- AC50 [2]: 28 µM (active)
- IC50 (cells [3]): > 67.5 µM (inactive)
- IC50 [4]: > 278 nM (active)
- AC50 [5]: > 52 µM (inactive)
- AC50 [6]: > 52 µM (inactive)
- AC50 [7]: 2.53 µM (active)
- AC50 [8]: 2.65 µM (active)
- AC50 [9]: 36.4 µM (active)

Structure (SMILES): Cc1cccc2cc(C=C3C(=O)NC(=O)NC3=O)c(O)nc12
- IC50 [10]: > 128 µM (inactive)

Structure (SMILES): COc1cccc(-c2cc3nc(-c4ccccc4)cc(O)n3n2)c1
- AC50 [11]: 2.35 µM (active)

Structure (SMILES): Cc1cccc(OCC(=O)NNC(=O)C2CCCCC2C(=O)O)c1 (stereo not drawn)
- AC50 (A549): 26.4 µM (active)

Structure (SMILES): O=C(CF)NC(Nc1cccc2cccnc12)C(Cl)(Cl)Cl (stereo not drawn)
- IC50 [12]: > 10 µM (active)
- IC50 [13]: 2.03 µM (active)

Structure (SMILES): Cc1cc2nc3c(cc2cc1F)c(NC(=O)c1ccco1)nn3C
- AC50 [14]: > 200 µM (inactive)

Structure (SMILES): CC(=O)c1ccc(S(=O)(=O)Nc2cccc(-n3cnnn3)c2)cc1
- IC50 [15]: 526 nM (active)
- IC50 [16]: 17.4 µM (active)
- IC50 [17]: 1.51 µM (active)
- IC50 [18]: 11.4 µM (active)
- AC50 [19]: 12.9 µM (active)

Structure (SMILES): Cc1nn(CCO)c2nc(-c3cccs3)cc(C(F)(F)F)c12
- CC50 [20]: > 50 µM (active)
- AC50 [21]: 26.3 µM (active)

Structure (SMILES): C(=C\c1nccc2c1[nH]c1ccccc12)/c1ccccc1
- CC50 [22]: 25.4 µM (active)
- IC50 [23]: > 370 nM (active)

Structure (SMILES): COc1ccc(CCN/C=C2/C=C(Br)C(=O)OC2=O)cc1
- IC50 [24]: 5.7 µM (active)
- IC50 [25]: 1.8 µM (active)

Structure (SMILES): O=C(Nc1cc(N2CCCCC2)ncn1)c1cc2ccccc2s1
- IC50 (Protein Wnt-3a): > 21.8 µM (inactive)

Structure (SMILES): COCC/N=c1\scc(-c2cc(OC)ccc2OC)n1/N=C/c1c[nH]c2ccccc12
- IC50 [26]: 9.65 µM (active)
- EC50 (Beta-galactosidase): > 31.5 µM (inactive)
- IC50 [27]: 3.86 µM
- IC50 [28]: > 69.5 µM (inactive)
- IC50 [29]: > 69.5 µM (inactive)
- IC50 [30]: > 69.5 µM (inactive)

Structure (SMILES): COC(=O)C1=C(C)N(Cc2ccc(F)cc2)C(=S)NC1c1ccc(Cl)cc1 (stereo not drawn)
- AC50 (HeLa): > 52 µM (inactive)

Structure (SMILES): COc1ccc(Nc2cc(C)c3c(O)cccc3n2)cc1
- CC50 [20]: 22.6 µM (active)
- EC50 [31]: 1.94 µM (active)
- EC50 [32]: > 60 µM (inconclusive)
- IC50 [33]: 56.3 µM (inactive)
- IC50 (cells [34]): > 29.9 µM (inactive)
- EC50 (cells [35]): > 29.9 µM (inactive)

Structure (SMILES): CC(C)N1C[C@@H](CN(C)CCc2ccc(Cl)cc2)Oc2c(NC(=O)c3ccncc3)cccc2C1=O
- AC50 [36]: 0.332 nM (active)
